Measured values as given in patent publication US8742100B2, “Small molecule inhibitors of isoprenylcysteine carboxyl methyltransferase with potential anticancer activity” (National University of Singapore, priority 2009, dated 2014).
Read-outs that look alike come from different tables or passages of the source.

Legend:
[1] = tested on: MDA-MB-231 human breast cells; experiment: Proliferation assay, CellTiter 96 AQueous One Solution (MTS); assay type: cell-based; conditions: for inhibition at 10 µM: read-out: inhibition in initial screen at a fixed concentration
Method: (§1) The MDA-MB-231 human breast cells were maintained at 37° C. with 5% CO2 in DMEM (Sigma) supplemented with 10% fetal bovine serum (FBS, Hyclone), 50 U/ml penicillin (Gibco), and 50 μg/ml streptomycin (Gibco). […] The relative number of the live cells was determined using the CellTiter® 96 AQueous One Solution Cell Proliferation Assay (Promega). Each condition was performed in triplicate, and data presented represent that obtained from at least two separate experiments.
as §1, with “to date were” for “represent that”, “one determination.” for “at least two separate experiments.”

Icmt = molecular target: T1, Icmt (Homo sapiens, UniProt O60725); experiment: Measurement of ICMT activity: incorporation of 3H from [3H]AdoMet into biotin-S-farnesyl L-cysteine, Sf9 membranes containing ICMT; assay type: biochemical; conditions: mean of two separate determinations; ±SD where more than two; read-out: IC50 Icmt inhibition
T1 construct: host or cells: Sf9 membranes
T1 sequence (O60725 whole entry, species assumed): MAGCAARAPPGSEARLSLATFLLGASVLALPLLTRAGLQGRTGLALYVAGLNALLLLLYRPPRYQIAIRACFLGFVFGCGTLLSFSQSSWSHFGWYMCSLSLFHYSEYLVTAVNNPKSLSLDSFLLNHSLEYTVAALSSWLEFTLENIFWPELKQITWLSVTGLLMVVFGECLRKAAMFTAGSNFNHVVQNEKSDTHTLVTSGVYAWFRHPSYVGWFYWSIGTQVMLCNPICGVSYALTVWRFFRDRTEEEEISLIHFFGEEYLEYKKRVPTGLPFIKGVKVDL
Method: (§2) Measurement of ICMT activity. Icmt activity was determined by following incorporation of ^3H from [^3H]AdoMet (Amersham Biosciences) into the small molecule substrate biotin-S-farnesyl L-cysteine (BFC). Inhibitors were first incubated at 37° C. for 20 min, with the Sf9 membranes containing ICMT. An assay mixture containing 4 μM BFC and 5 μM [^3H]AdoMet in 100 mM Hepes, pH 7.4 and 5 mM MgCl2 was added to initiate the reaction. Reactions were carried out at 37° C. for 20 min, and terminated by addition of 10% Tween 20 and streptavidin beads (GE Healthcare, 10 uL of packed beads suspended in 500 μL of 20 mM NaH2PO4, pH 7.4, containing 150 mM NaCl). The mixtures were mixed by gentle agitation overnight at 4° C. The beads were harvested by centrifugation in a tabletop microcentrifuge at 10,000 rpm for 5 min and washed three times with 500 μL of 20 mM NaH2PO4, pH 7.4, containing 150 mM NaCl. The beads were then suspended in the same buffer, transferred to scintillation vials, and radioactivity determined.
as §2, with “Activity.” for “activity.”

[2] = Binding to fetal bovine serum (plasma protein binding), centrifugal filter device, HPLC; assay type: in vitro ADME; conditions: bovine, 5% w/v fetal bovine serum in phosphate buffered saline; for fraction unbound at 30 min, 1 µM / fraction unbound at 30 min, 4 µM / fraction unbound at 30 min, 10 µM / fraction unbound at 30 min, 25 µM: 5% fetal bovine serum in PBS; for fraction unbound at 30 min: all conc (1, 4, 10, 25 uM), read-out: % Bound Average, all conc (converted)
Method: (§3) Semi-automatic high-throughput determination of plasma protein binding using a 96-well plate filtrate assembly and fast liquid chromatography—tandem mass spectrometry. […] Stock solutions were prepared in DMSO at 100× higher concentrations. A 5% w/v solution of fetal bovine serum in phosphate buffered saline was prepared. An aliquot (10 μL of the stock solution was added to 990 μL of the PBS solution containing 5% fetal bovine serum in a glass tube which was then incubated in a shaking water bath at 37° C. for 30 min. 500 μL of the solution was then transferred to a centrifugal filter device (Amicon Ultra 0.5 ml # UFC503096) and centrifuged at 14 000g, 15 min. After this time, the filter units were removed and placed (upside down) in a collecting tube containing 477 μL, of PBS. The latter was centrifuged at 2000g, 2 min to obtain the retentate. […] J.

fetal bovine serum = experiment: as above; assay type: in vitro ADME; conditions: fetal bovine serum
Method: as §3

[3] = Homo sapiens, MDA-MB-231, 72 h, MDA-MB-231 cells, MTS colorimetric assay, 72 h, one determination
[4] = Homo sapiens, MDA-MB-231 cells, MTS colorimetric assay, 72 h, one determination, read-out: IC50
[5] = Homo sapiens, MDA-MB-231 cells, 72 h, mean of two separate determinations, ±SD where more than two, read-out: IC50 Antiproliferative activity
[6] = Homo sapiens, MDA-MB-231, 72 h, read-out: IC50 Antiproliferative activity, MDA-MB-231 cells, 72 h, mean of two separate determinations, ±SD where more than two
[7] = read-out: % Bound Average (converted)
[8] = read-out: % Bound Run 1 (converted)
[9] = read-out: % Bound Run 2 (converted)
[10] = read-out: % Bound Run 3 (converted)

## CCCCCCCCn1cc(CN(C)C)c2cc(F)ccc21 [6-9(1), 1-(5-fluoro-1-octyl-1H-indol-3-yl)-N,N-dimethylmethanamine]
[1]; [3]
  IC50: 4.9 µM

## CCCCCCCCn1cc(CN2CCCCC2)c2cc(F)ccc21 [6-9(2), 5-fluoro-1-octyl-3-(piperidin-1-ylmethyl)-1H-indole]
[1]; [3]
  IC50: 2.3 µM

## CCCCCCCCn1cc(CN2CCSCC2)c2cc(F)ccc21 [6-9(3), 4-((5-fluoro-1-octyl-1H-indol-3-yl)methyl)thiomorpholine]
[1]; Homo sapiens, MDA-MB-231 cells
  inhibition at 10 µM: ~45%

## CCCCCCCCn1cc(CN2CCOCC2)c2cc(F)ccc21 [6-9(4), 4-((5-fluoro-1-octyl-1H-indol-3-yl)methyl)morpholine]
[1]; [4]
  IC50: 3.2 µM

## CCCCCCCCn1cc(CN2CCCC2)c2cc(F)ccc21 [6-9(5), 5-fluoro-1-octyl-3-(pyrrolidin-1-ylmethyl)-1H-indole]
[1]; [4]
  IC50: 2.2 µM

## CCCCCCCCn1cc(CN2CCN(C)CC2)c2cc(F)ccc21 [6-9(6), 5-fluoro-3-((4-methylpiperazin-1-yl)methyl)-1-octyl-1H-indole]
[1]; Homo sapiens, MDA-MB-231 cells
  inhibition at 10 µM: ~45%

## CCCCCCCCn1cc(CC(N)=O)c2cc(F)ccc21 [Compound 1-8, 2-(5-Fluoro-1-octyl-1H-indol-3-yl)acetamide]
Icmt
  IC50: 7000 nM
[1]; [5]
  IC50: 70 µM

## CCCCCCCCn1cc(CC(=O)N2CCN(C)CC2)c2cc(-c3cccc(C)c3)ccc21 [Compound 3-6, 1-(4-Methylpiperazin-1-yl)-2-(1-octyl-5-m-tolyl-1H-indol-3-yl)ethanone]
Icmt
  IC50: 1700 ± 400 nM
[1]; [6]
  IC50: 19.7 ± 0.9 µM

## CCCCCCCCn1cc(CC(=O)NC)c2cc(-c3cccc(C)c3)ccc21 [Compound 3-7, N-Methyl-2-(1-octyl-5-m-tolyl-1H-indol-3-yl)acetamide]
Icmt
  IC50: 2100 nM
[1]; [5]
  IC50: 4.7 µM

## CCCCCCCCn1cc(C(N)=O)c2cc(-c3cccc(C)c3)ccc21 [Compound 5-1, 1-Octyl-5-m-tolyl-1H-indole-3-carboxamide]
Icmt
  IC50: 30000 nM
[1]; [6]
  IC50: > 100 µM

## CCCCCCCCn1cc(CCC(N)=O)c2cc(-c3cccc(C)c3)ccc21 [Compound 5-2, 3-(1-Octyl-5-m-tolyl-1H-indol-3-yl)propanamide]
Icmt
  IC50: 1200 nM
[1]; [5]
  IC50: 20.7 µM

## CC(C)=CCn1ccc2cc(-c3cccc(C)c3)ccc21 [Compound 6-3, 1-(3-Methylbut-2-enyl)-5-m-tolyl-1H-indole]
Icmt
  IC50: > 100000 nM
[1]; [5]
  IC50: > 100 µM

## CC(C)=CCn1cc(CN2CCOCC2)c2cc(-c3cccc(C)c3)ccc21 [Compound 6-6, 4-((1-(3-methylbut-2-enyl)-5-m-tolyl-1H-indol-3-yl)methyl)morpholine]
Icmt
  IC50: 2000 ± 800 nM
[1]; [6]
  IC50: 34 ± 3 µM

## CC(C)=CCn1cc(CC(N)=O)c2cc(F)ccc21 [Compound 6-8, 2-(5-Fluoro-1-(3-methylbut-2-enyl)-1H-indol-3-yl)acetamide]
Icmt
  IC50: 69000 nM
[1]; [5]
  IC50: > 100 µM

## CCCCCCCCn1cc(CN(CC)CC)c2cc(F)ccc21 [Compound 6-9, N-ethyl-N-((5-fluoro-1-octyl-1H-indol-3-yl)methyl)ethanamine]
[1]; [3]
  IC50: 2.7 µM
[1]; MDA-MB-231 cells, MTS colorimetric assay, 72 h, one determination
  IC50: 2 µM

## CCCCCCCCn1cc(CN(CC)CC)c2cc(-c3cccc(C)c3)ccc21 [Compound J17G, N-ethyl-N-((1-octyl-5-m-tolyl-1H-indol-3-yl)methyl)ethanamine]
[2]; [7]
  fraction unbound at 30 min, 1 µM: 0.182
  fraction unbound at 30 min, 4 µM: 0.272
  fraction unbound at 30 min, 10 µM: 0.299
  fraction unbound at 30 min, 25 µM: 0.304
[2]; [8]
  fraction unbound at 30 min, 1 µM: 0.17
  fraction unbound at 30 min, 4 µM: 0.274
  fraction unbound at 30 min, 10 µM: 0.317
  fraction unbound at 30 min, 25 µM: 0.286
[2]; [9]
  fraction unbound at 30 min, 1 µM: 0.224
  fraction unbound at 30 min, 4 µM: 0.301
  fraction unbound at 30 min, 10 µM: 0.353
  fraction unbound at 30 min, 25 µM: 0.352
[2]; [10]
  fraction unbound at 30 min, 1 µM: 0.151
  fraction unbound at 30 min, 4 µM: 0.243
  fraction unbound at 30 min, 10 µM: 0.226
  fraction unbound at 30 min, 25 µM: 0.275
[2]
  fraction unbound at 30 min: 0.264
Fetal bovine serum
  binding capacity compared with cysmethynil: lower binding capacities than cysmethynil

## CCCCCCCCn1cc(CC(N)=O)c2cc(-c3cccc(C)c3)ccc21 [cysmethynil, 2-(1-octyl-5-m-tolyl-1H-indol-3-yl) acetamide, reference compound]
Icmt
  IC50: 1500 nM
[2]; [7]
  fraction unbound at 30 min, 1 µM: 0.0962
  fraction unbound at 30 min, 4 µM: 0.104
  fraction unbound at 30 min, 10 µM: 0.0945
  fraction unbound at 30 min, 25 µM: 0.122
[2]; [8]
  fraction unbound at 30 min, 1 µM: 0.107
  fraction unbound at 30 min, 4 µM: 0.0557
  fraction unbound at 30 min, 10 µM: 0.136
  fraction unbound at 30 min, 25 µM: 0.219
[2]; [9]
  fraction unbound at 30 min, 1 µM: 0.0611
  fraction unbound at 30 min, 4 µM: 0.124
  fraction unbound at 30 min, 10 µM: 0.0943
  fraction unbound at 30 min, 25 µM: 0.0636
[2]; [10]
  fraction unbound at 30 min, 1 µM: 0.12
  fraction unbound at 30 min, 4 µM: 0.131
  fraction unbound at 30 min, 10 µM: 0.0538
  fraction unbound at 30 min, 25 µM: 0.0844
[2]
  fraction unbound at 30 min: 0.104
